In PMC4348352 (Bioorganic & medicinal chemistry letters, 2015):
In brackets after ≈: the same amount, converted by molar mass.

Experiments:
[1] = test system: B. anthracis; conditions: cited from earlier work
[2] = test system: E. coli; conditions: cited from earlier work
[3] = test system: S. aureus; conditions: cited from earlier work
[4] = test system: F. tularensis; assay: microbe, parasite or virus in culture; format: cell-based; conditions: Francisella tularensis
[5] = test system: E. coli TolC-; assay: microbe, parasite or virus in culture; format: cell-based; conditions: Escherichia coli

SMILES	MIC [1] [µg/mL]	MIC [2] [µg/mL]	MIC [3] [µg/mL]	MIC [4] [µg/mL]	MBC [5] [µg/mL]
Cc1cc2ncn(Cc3ccc(Cl)c(Cl)c3)c2cc1C [Compound 1]	9.4 (≈ 30.8 µM)	>200	25 (≈ 81.9 µM)	–	–
CC(c1ccc(Cl)c(Cl)c1)n1cnc2cc3c(cc21)CCC3 (stereo not drawn) [Compound 3]	–	–	–	3.1 to 6.3 (≈ 9.36 to 19 µM)	–
CC(c1ccc(Cl)c(Cl)c1)n1cnc2cc3c(cc21)CCCC3 (stereo not drawn) [Compound 4]	–	–	–	3.1 to 6.3 (≈ 8.98 to 18.2 µM)	> 25
